In patent publication EP2790511B1 (Merck Sharp & Dohme Corp., priority 2011, dated 2013):
pIC50: −log10 of the molar value.

biological target: T1, hROMK (hKir1.1) (Homo sapiens, UniProt P48048); experiment: Thallium Flux Assay; type: cell-based; conditions: HEK293 cells stably expressing hROMK (hKir1.1), FLIPR-Tetra; read-out: Thallium Flux IC50
T1 construct: expressed in transfected cells
T1 sequence (P48048 1-391): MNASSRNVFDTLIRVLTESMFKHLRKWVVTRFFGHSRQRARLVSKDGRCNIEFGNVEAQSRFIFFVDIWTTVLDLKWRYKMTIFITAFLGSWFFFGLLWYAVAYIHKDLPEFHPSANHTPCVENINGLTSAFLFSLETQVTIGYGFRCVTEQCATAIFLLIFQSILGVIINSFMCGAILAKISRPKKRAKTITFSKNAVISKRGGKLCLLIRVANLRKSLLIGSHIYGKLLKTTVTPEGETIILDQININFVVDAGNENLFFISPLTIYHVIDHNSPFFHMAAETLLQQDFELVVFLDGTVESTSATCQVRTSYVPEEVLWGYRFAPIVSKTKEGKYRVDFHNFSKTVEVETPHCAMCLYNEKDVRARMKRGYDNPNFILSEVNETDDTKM
Description: Cell Culture Conditions- HEK293 cells stably expressing hROMK (hKir1.1) were grown at 37°C in a 10%CO2 humidified incubator in complete growth media: Dulbecco's Modified Eagle Medium supplemented with non-essential amino acids, Penicillin/Streptomycin/Glutamine, G418 and FBS. At >80% confluency, aspirate the media from the flask and rinse with 10 mL Calcium/Magnesium-free PBS. […] To dislodge the cell, gently bang the side of the flask with your hand. Triturate the cells completely and then transfer the cells to 25 mL complete media. Centrifuge at 1,500 rpm for 6 min followed by resuspension in complete growth media and determine cell concentration. […] Under ideal growth conditions and appropriate tissue culture practices, this cell line is stable for 40-45 passages.
• FluxOR™ Reagent (Component A) • FluxOR™ Assay Buffer (Component B) - 10X Concentrate • PowerLoad™ Concentrate (Component C) - 100X Concentrate • Probenecid (Component D) - Lyophilized sample is kept at -20°C. Water soluble, 100X after solubilization in 1 mL water. […] Store at 4°C. • Thallium sulfate (Tl2SO4) Concentrate (Component G) - 50 mM in water. Store at 4°C • DMSO (dimethyl sulfoxide, Component H) - 1 mL (100%)
• 1000X FluxOR™ Reagent: Reconstitute a vial of component A in 100 µl DMSO; Mix well; Store 10 µl aliquots at -20°C • 1X FluxOR™ Assay Buffer: Dilute Component B 10-fold with water; Adjust pH to 7.4 with Hepes/NaOH; Filter and store at 4°C • Probenecid/Assay Buffer: 100 mL of 1X FluxOR™ Assay Buffer; 1 mL of reconstituted component D; Store at 4°C • Loading Buffer (per microplate): 10 µl 1000X FluxOR™ Reagent; 100 µl component C; 10 mL Probenecid/Assay Buffer • Compound Buffer (per microplate): 20 mL Probenecid/Assay Buffer; 0.3 mM ouabain (10 mM ouabain in water can be stored in amber bottle/aluminum foil at room temperature); Test compound • 1X FluxOR™Chloride-Free Buffer: Prepare 1X working solution in water. Can be stored at room temperature • Stimulant Buffer (prepared at 5X final concentration in 1X FluxOR™Chloride-Free Buffer): 7.5 mM Thallium sulfate and 0.75 mM Potassium sulfate (to give a final assay concentration of 3 mM Thallium/ 0.3 mM Potassium). Store at 4°C when not in use. If kept sterile, this solution is good for months.
Assay protocol- The ROMK channel functional thallium flux assay is performed in 384 wells, using the FLIPR-Tetra instrument. HEK-hKir1.1 cells are seeded in Poly-D-Lysine microplates and kept in a 37°C-10%CO2 incubator overnight. On the day of the experiment, the growth media is replaced with the FluxOR™ reagent loading buffer and incubated, protected from light, at ambient temperature (23-25°C) for 90 min. The loading buffer is replaced with assay buffer ± test compound followed by 30 min incubation at ambient temperature, where the Thallium/Potassium stimulant is added to the microplate.
• 1. Seed HEK-hKir1.1 cells (50 µl at 20,000 cells/well) in 384-well PDL coated Microplates • 2. Allow cells to adhere overnight in humidified 37°C/10%CO2 incubator • 3. Completely remove cell growth media from microplate and replace with 25 µl loading buffer • 4. Incubate Microplate at room temperature, protected form light, for 90 min • 5. Remove loading buffer and replace with 25 µl 1x Assay Buffer ± test compound. • 6. Incubate microplate at room temperature, protected form light, for 30 min • 7. […] Excitation = 400 nm, Emission = 460 & 580 nm. Collect data for ∼ 10 min.
Data Calculation- The fluorescence intensity of wells containing 3 µM of a standard control ROMK inhibitor of the present invention is used to define the ROMK-sensitive component of thallium flux. Fluorescence in the presence of test compounds is normalized to control values to provide % fluorescence change.

Structure (SMILES)	pIC50
O=C1OCc2cc([C@@H]3CN4CCN(C(=O)Cc5ccc(-n6cnnn6)cn5)C[C@H]4CO3)ccc21 [Example 27, 5-[(3R,9aS)-8-{[5-(1H-tetrazol-1-yl)pyridin-2-yl]acetyl}octahydropyrazino[2,1-c][1,4]oxazin-3-yl]-2-benzofuran-1(3H)-one]	7.00
O=C1OCc2cc([C@H]3CN4CCN(C(=O)Cc5ccc(-n6cnnn6)cn5)C[C@H]4CO3)ccc21 [Example 28, 5-[(3S,9aS)-8-{[5-(1H-tetrazol-1-yl)pyridin-2-yl]acetyl}octahydropyrazino[2,1-c][1,4]oxazin-3-yl]-2-benzofuran-1(3H)-one]	6.74
Cc1nc(-n2cnnn2)ccc1CC(=O)N1CCN2C[C@@H](c3ccc4c(c3)CCOC4=O)OC[C@@H]2C1 [Example 30, 6-[(3R,9aS)-8-{[2-methyl-6-(1H-tetrazol-1-yl)pyridin-3-yl]acetyl}octahydropyrazino[2,1-c][1,4]oxazin-3-yl]-3,4-dihydro-1H-isochromen-1-one]	6.80
Cc1c([C@H]2CN3CCN(C(=O)Cc4ccc(-n5cnnn5)cn4)C[C@@H]3CO2)ccc(F)c1C#N [Example 31, 6-fluoro-2-methyl-3-[(3S,9aR)-8-{[5-(1H-tetrazol-1-yl)pyridin-2-yl]acetyl}octahydropyrazino[2,1-c][1,4]oxazin-3-yl]benzonitrile]	6.80
COc1cc([C@H]2CN3CCN(C(=O)Cc4ccc(-n5cnnn5)nc4)C[C@@H]3CO2)ccc1C#N [Example 39, 2-methoxy-4-[(3S,9aR)-8-{[6-(1H-tetrazol-1-yl)pyridin-3-yl]acetyl}octahydropyrazino[2,1-c][1,4]oxazin-3-yl]benzonitrile]	6.59
COc1cc([C@@H]2CN3CCN(C(=O)Cc4ccc(-n5cnnn5)nc4)C[C@@H]3CO2)ccc1C#N [Example 40, 2-methoxy-4-[(3R,9aR)-8-{[6-(1H-tetrazol-1-yl)pyridin-3-yl]acetyl}octahydropyrazino[2,1-c][1,4]oxazin-3-yl]benzonitrile]	7.15
COc1cc([C@@H]2CN3CCN(C(=O)Cc4ccc(-n5cnnn5)nc4)C[C@H]3CO2)ccc1C#N [Example 41, 2-methoxy-4-[(3R,9aS)-8-{[6-(1H-tetrazol-1-yl)pyridin-3-yl]acetyl}octahydropyrazino[2,1-c][1,4]oxazin-3-yl]benzonitrile]	6.64
Cc1cc(-n2cnnn2)ncc1CC(=O)N1CCN2C[C@@H](c3ccc4c(c3)CCOC4=O)OC[C@@H]2C1 [Example 44, 6-[(3R,9aS)-8-{[4-methyl-6-(1H-tetrazol-1-yl)pyridin-3-yl]acetyl}octahydropyrazino[2,1-c][1,4]oxazin-3-yl]-3,4-dihydro-1H-isochromen-1-one]	6.77
COc1cc([C@@H]2CN3CCN(C(=O)Cc4cnc(-n5cnnn5)cc4C)C[C@@H]3CO2)ccc1C#N [Example 45, 2-methoxy-4-[(3R,9aR)-8-{[4-methyl-6-(1H-tetrazol-1-vl)pvridin-3-yl]acetyl}octahydropyrazino[2,1-c][1,4]oxazin-3-yl]benzonitrile]	6.60
O=C1OCc2c1ccc([C@H]1CN3CCN(C(=O)Cc4ccc(-n5cnnn5)nc4)C[C@H]3CO1)c2Br [Example 48, 4-bromo-5-[(3S,9aS)-8-{[6-(1H-tetrazol-1-yl)pyridin-3-yl]acetyl}octahydropyrazino[2,1-c][1,4]oxazin-3-yl]-2-benzofuran-1(3H)-one]	6.82
N#Cc1c(F)ccc([C@@H]2CN3CCN(C(=O)Cc4ccc(-n5cnnn5)nc4)C[C@H]3CO2)c1Cl [Example 51, 2-chloro-6-fluoro-3-[(3R,9aS)-8-{[6-(1H-tetrazol-1-yl)pyridin-3-yl]acetyl}octahydropyrazino[2,1-c][1,4]oxazin-3-yl]benzonitrile]	7.30

same assay, conditions: Thallium Flux IC50

Structure (SMILES)	pIC50
Cc1c([C@H]2CN3CCN(C(=O)Cc4ccc(-n5cnnn5)nc4)C[C@@H]3CO2)ccc2c1COC2=O [Example 24, 4-methyl-5-[(3S,9aR)-8-{[6-(1H-tetrazol-1-yl)pyridin-3-yl]acetyl}octahydropyrazino[2,1-c][1,4]oxazin-3-yl]-2-benzofuran-1(3H)-one]	6.80
Cc1c([C@H]2CN3CCN(C(=O)Cc4ccc(-n5cnnn5)cn4)C[C@H]3CO2)ccc2c1COC2=O [Example 29, 4-methyl-5-[(3S,9aS)-8-{[5-(1H-tetrazol-1-yl)pyridin-2-yl]acetyl}octahydropyrazino[2,1-c][1,4]oxazin-3-yl]-2-benzofuran-1(3H)-one]	6.96
Cc1c([C@@H]2CN3CCN(C(=O)Cc4ccc(-n5cnnn5)cn4)C[C@@H]3CO2)ccc(F)c1C#N [Example 32, 6-fluoro-2-methyl-3-[(3R,9aR)-8-{[5-(1H-tetrazol-1-yl)pyridin-2-yl]acetyl}octahydropyrazino[2,1-c][1,4]oxazin-3-yl]benzonitrile]	7.10
Cc1cc(-n2cnnn2)ncc1CC(=O)N1CCN2C[C@H](c3ccc4c(c3C)COC4=O)OC[C@@H]2C1 [Example 42, 4-methyl-5-[(3S,9aS)-8-{[4-methyl-6-(1H-tetrazol-1-yl)pyridin-3-yl]acety}octahydropyrazino[2,1-c][1,4]oxazin-3-yl]-2-benzofuran-1(3H)-one]	6.68
Cc1cc(-n2cnnn2)ncc1CC(=O)N1CCN2C[C@H](c3ccc(F)c(C#N)c3C)OC[C@@H]2C1 [Example 43, 6-fluoro-2-methyl-3-[(3S,9aS)-8-{[4-methyl-6-(1H-tetrazol-1-vl)pvridin-3-yl]acetyl}octahydropyrazino[2,1-c][1,4]oxazin-3-yl]benzonitrile]	7.05
O=C1OCc2c1ccc([C@@H]1CN3CCN(C(=O)Cc4ccc(-n5cnnn5)nc4)C[C@H]3CO1)c2Cl [Example 46, 4-chloro-5-[(3R,9aS)-8-{[6-(1H-tetrazol-1-yl)pyridin-3-yl]acetyl}octahydropyrazino[2,1-c][1,4]oxazin-3-yl]-2-benzofuran-1(3H)-one]	6.17
O=C1OCc2c1ccc([C@H]1CN3CCN(C(=O)Cc4ccc(-n5cnnn5)nc4)C[C@H]3CO1)c2Cl [Example 47, 4-chloro-5-[(3S,9aS)-8-{[6-(1H-tetrazol-1-yl)pyridin-3-yl]acetyl}octahydropyrazino[2,1-c][1,4]oxazin-3-yl]-2-benzofuran-1(3H)-one]	7.05
COc1ccc([C@H]2CN3CCN(C(=O)Cc4ccc(-n5cnnn5)nc4)C[C@H]3CO2)c(C)c1C#N [Example 49, 6-methoxy-2-methyl-3-[(3S,9aS)-8-{[6-(1H-tetrazol-1-vl)pvridin-3-yl]acetyl}octahydropyrazino[2,1-c][1,4]oxazin-3-yl]benzonitrile]	6.54
N#Cc1c(F)ccc([C@H]2CN3CCN(C(=O)Cc4ccc(-n5cnnn5)cn4)C[C@H]3CO2)c1Cl [Example 52, 2-chloro-6-fluoro-3-[(3S,9aS)-8-{[5-(1H-tetrazol-1-yl)pyridin-2-yl]acetyl}octahydropyrazino[2,1-c][1,4]oxazin-3-yl]benzonitrile]	6.96
